Publication PMC10558864 (Heliyon, 2023)
Where no end group is shown, it is not given here.

Key:
[1] = test system: MRSA; type: cell-based, methicillin-resistant Staphylococcus aureus; conditions: for MIC of antibiotic alone, MRSA: MTT indicator; for FIC index of Cefotaxime in combination with the peptide, MRSA / FIC index of Chloramphenicol in combination with the peptide, MRSA / FIC index of Erythromycin in combination with the peptide, MRSA: FIC(A) = MIC of antibiotic in the presence of peptide / MIC of antibiotic alone
[2] = test system: S. typhi^R; type: cell-based, Salmonella typhi; conditions: for MIC of antibiotic alone, S. typhi: resistant strain, MTT indicator; for MIC of antibiotic alone, S. typhi / FIC index of peptide in combination with Cefotaxime, S. typhi^R / FIC index of peptide in combination with Chloramphenicol, S. typhi^R / FIC index of peptide in combination with Erythromycin, S. typhi^R: 37 °C, 24 h; for FIC index of Cefotaxime in combination with the peptide, S. typhi^R / FIC index of Chloramphenicol in combination with the peptide, S. typhi^R / FIC index of Erythromycin in combination with the peptide, S. typhi^R: FIC(A) = MIC of antibiotic in the presence of peptide / MIC of antibiotic alone; for FIC index of peptide in combination with Cefotaxime, S. typhi^R / FIC index of peptide in combination with Chloramphenicol, S. typhi^R / FIC index of peptide in combination with Erythromycin, S. typhi^R: checkerboard, FIC(A)+FIC(P)
[3] = test system: E. coli^R; type: cell-based, Escherichia coli; conditions: for MIC of antibiotic alone, E. coli: resistant strain, MTT indicator; for MIC of antibiotic alone, E. coli / FIC index of peptide in combination with Cefotaxime, E. coli^R / FIC index of peptide in combination with Chloramphenicol, E. coli^R / FIC index of peptide in combination with Erythromycin, E. coli^R: 37 °C, 24 h; for FIC index of Chloramphenicol in combination with the peptide, E. coli^R / FIC index of Erythromycin in combination with the peptide, E. coli^R / FIC index of Cefotaxime in combination with the peptide, E. coli^R: FIC(A) = MIC of antibiotic in the presence of peptide / MIC of antibiotic alone; for FIC index of peptide in combination with Cefotaxime, E. coli^R / FIC index of peptide in combination with Chloramphenicol, E. coli^R / FIC index of peptide in combination with Erythromycin, E. coli^R: checkerboard, FIC(A)+FIC(P)
[4] = test system: K. pneumoniae; type: cell-based, Klebsiella pneumoniae; conditions: micro broth dilution, 37 °C, 24 h, MTT indicator, triplicates
[5] = test system: MRSA; type: cell-based, methicillin-resistant Staphylococcus aureus; conditions: micro broth dilution, 37 °C, 24 h, MTT indicator, triplicates
[6] = test system: microorganisms tested (standard and resistant bacterial strains); experiment: MIC range over the strains tested and therapeutic index; type: cell-based; conditions: for MIC range: range over the strains tested, micro broth dilution
[7] = test system: human erythrocytes; experiment: Hemolytic activity; type: cell-based; conditions: 1% human erythrocytes in PBS pH 7.40, 37 °C, 1 h, absorbance 570 nm
[8] = test system: S. typhi^R; type: cell-based, Salmonella typhi; conditions: micro broth dilution, 37 °C, 24 h, MTT indicator, triplicates
[9] = test system: E. coli^N (standard strain); type: cell-based, Escherichia coli; conditions: micro broth dilution, 37 °C, 24 h, MTT indicator, triplicates
[10] = test system: S. pyogenes; type: cell-based, Streptococcus pyogenes; conditions: micro broth dilution, 37 °C, 24 h, MTT indicator, triplicates
[11] = test system: E. coli^R (resistant strain); type: cell-based, Escherichia coli; conditions: micro broth dilution, 37 °C, 24 h, MTT indicator, triplicates
[12] = test system: S. typhi^N; type: cell-based, Salmonella typhi; conditions: micro broth dilution, 37 °C, 24 h, MTT indicator, triplicates
[13] = test system: S. aureus; type: cell-based, Staphylococcus aureus; conditions: micro broth dilution, 37 °C, 24 h, MTT indicator, triplicates
[14] = checkerboard, FIC(A)+FIC(P), 37 °C, 24 h

Molecule | MIC of antibiotic alone, MRSA ([1]; 37 °C, 24 h) | MIC of antibiotic alone, S. typhi [2] | Minimum inhibitory concentration; MIC, K. pneumoniae [4] | Minimum inhibitory concentration; MIC, MRSA [5] | FIC index of Cefotaxime in combination with the peptide, MRSA [1] | FIC index of Chloramphenicol in combination with the peptide, MRSA [1] | FIC index of Erythromycin in combination with the peptide, MRSA [1] | MHC (minimum concentration of peptide that causes hemolysis) [7] | FIC index of Chloramphenicol in combination with the peptide, E. coli^R [3] | FIC index of Erythromycin in combination with the peptide, E. coli^R [3] | Minimum inhibitory concentration; MIC, S. typhi^R [8] | Minimum inhibitory concentration; MIC, E. coli^N [9] | Minimum inhibitory concentration; MIC, S. pyogenes [10] | FIC index of Cefotaxime in combination with the peptide, S. typhi^R [2] | FIC index of Chloramphenicol in combination with the peptide, S. typhi^R [2] | FIC index of Erythromycin in combination with the peptide, S. typhi^R [2] | Minimum inhibitory concentration; MIC, E. coli^R [11] | Minimum inhibitory concentration; MIC, S. typhi^N [12] | Minimum inhibitory concentration; MIC, S. aureus [13] | FIC index of Cefotaxime in combination with the peptide, E. coli^R [3] | also measured
CO/N=C(\C(=O)N[C@@H]1C(=O)N2C(C(=O)O)=C(COC(C)=O)CS[C@H]12)c1csc(N)n1 [Cefotaxime, reference compound] | 34.3 µM | 68.6 µM |  |  |  |  |  |  |  |  |  |  |  |  |  |  |  |  |  |  | 
O=C(N[C@H](CO)[C@H](O)c1ccc([N+](=O)[O-])cc1)C(Cl)Cl [Chloramphenicol, reference compound] | 193.4 µM | 6 µM |  |  |  |  |  |  |  |  |  |  |  |  |  |  |  |  |  |  | MIC of antibiotic alone, E. coli [3]: 386.8 µM
CC[C@H]1OC(=O)[C@H](C)[C@@H](O[C@H]2C[C@@](C)(OC)[C@@H](O)[C@H](C)O2)[C@H](C)[C@@H](O[C@@H]2O[C@H](C)C[C@H](N(C)C)[C@H]2O)[C@](C)(O)C[C@@H](C)C(=O)[C@H](C)[C@@H](O)[C@]1(C)O [Erythromycin, reference compound] | 1.3 µM | 21.3 µM |  |  |  |  |  |  |  |  |  |  |  |  |  |  |  |  |  |  | MIC of antibiotic alone, E. coli [3]: 85.2 µM
AILFLSLGAIKKG [BRGP-001] |  |  | 117 µM | 15 µM | 0.50 | 0.063 | 0.54 | 1.127 mM | 0.25 | 0.12 | >1879 µM | >1879 µM | >1879 µM | 0.50 | 0.50 | 0.50 | >1879 µM | >1879 µM | 117 µM |  | FIC index of peptide in combination with Chloramphenicol, MRSA [1, 14]: 2.063; FIC index of peptide in combination with Erythromycin, MRSA [1, 14]: 0.81; MIC range [6]: 15 to 117 µM
FALSILGALGIKK [BRGP-006] |  |  | 1879 µM | 235 µM | 0.50 | 0.25 | 1.00 | 1.503 mM | 0.25 | 0.12 | 235 µM | 470 µM | 470 µM | 0.50 | 0.50 | 1.00 | 470 µM | >1879 µM | 939 µM | 0.50 | FIC index of peptide in combination with Cefotaxime, MRSA [1, 14]: 0.75; FIC index of peptide in combination with Chloramphenicol, MRSA [1, 14]: 0.75; FIC index of peptide in combination with Erythromycin, MRSA [1, 14]: 1.030; MIC range [6]: 235 to 1879 µM; FIC index of peptide in combination with Cefotaxime, E. coli^R [3]: 2.50; FIC index of peptide in combination with Chloramphenicol, E. coli^R [3]: 0.75; FIC index of peptide in combination with Erythromycin, E. coli^R [3]: 0.25; FIC index of peptide in combination with Cefotaxime, S. typhi^R [2]: 1.00; FIC index of peptide in combination with Chloramphenicol, S. typhi^R [2]: 0.53; FIC index of peptide in combination with Erythromycin, S. typhi^R [2]: 1.50
FLIKSLAGAKGIL [BRGP-002] |  |  | >1879 µM | >1879 µM | 0.50 | 1.00 | 1.00 | 1.879 mM | 0.50 |  | >1879 µM | >1879 µM | >1879 µM | 1.00 | 1.00 |  | >1879 µM | >1879 µM | >1879 µM |  | 
GIKGALKSILFAL [BRGP-005] |  |  | >1879 µM | >1879 µM | 0.50 | 0.50 | 1.00 | 0.188 mM | 0.25 | 0.12 | 470 µM | 470 µM | 470 µM | 0.50 | 1.00 | 0.50 | 235 µM | >1879 µM | >1879 µM | 0.25 | Therapeutic Indices (MHC/MIC) ([6]; range over the MIC range): 0.80 to 0.40; MIC range [6]: 235 to 470 µM; FIC index of peptide in combination with Cefotaxime, E. coli^R [3]: 2.25; FIC index of peptide in combination with Chloramphenicol, E. coli^R [3]: 1.25; FIC index of peptide in combination with Erythromycin, E. coli^R [3]: 0.37; FIC index of peptide in combination with Cefotaxime, S. typhi^R [2]: 0.75; FIC index of peptide in combination with Chloramphenicol, S. typhi^R [2]: 1.032; FIC index of peptide in combination with Erythromycin, S. typhi^R [2]: 0.63
KGGAIKSLFLILA [BRGP-003] |  |  | >1879 µM | >1879 µM | 0.50 | 0.50 | 0.54 | 1.127 mM | 1.00 | 1.00 | >1879 µM | >1879 µM | >1879 µM | 1.00 | 1.00 |  | >1879 µM | >1879 µM | >1879 µM | 0.50 | 
KGIKGALSILFAL [BRGP-004] |  |  | >1879 µM | >1879 µM | 0.50 | 0.50 | 0.54 | 1.503 mM | 0.50 | 0.12 | >1879 µM | >1879 µM | >1879 µM | 1.00 | 1.00 | 0.50 | >1879 µM | >1879 µM | >1879 µM | 0.50 | 
PQQYPEMNTRRNW [BRGP-007] |  |  | >1454 µM | >1454 µM |  |  |  | 1.454 mM |  |  | >1454 µM | >1454 µM | >1454 µM |  |  |  | >1454 µM | >1454 µM | >1454 µM |  | 
